Measured values: US12357619B2, “Noradrenergic and specific serotonergic anxiolytic and antidepressant, method for the production and use thereof” (ALLA CHEM, LLC, priority 2020, dated 2025)
Read-outs that look alike come from different tables or passages of the source.

Experiment: Pharmacokinetics, single and multiple dosing of capsules in volunteers (Example 11)
Format: in vivo, human
Conditions: for half-life / Tmax: human, in vivo, oral
Procedure: Example 11. Safety study of increasing doses of the oral drug of this invention made as a pharmaceutical composition of this invention in capsules. Clinical safety study of increasing doses of the antipsychotic drug made as a pharmaceutical composition of this invention in capsules for single and multiple dosing. The study covered one cohort of 4 volunteers taking antipsychotic drug once at a dose of 20 mg, and then at the same dose 2 times a day for 4 days. Based on the three-week safety data obtained in the 20-mg cohort taking antipsychotic drug twice a day, the independent safety data monitoring Committee took a decision to involve a second cohort of 4 volunteers, in which the antipsychotic drug under test was taken once at a dose of 20 mg and then 3 times a day for 4 days at the same dose.

With `Cc1ccc2c(c1)c1c(n2CCc2ccccc2)CCN(C)C1.Cl` [A•HCl, 2,8-dimethyl-5-(2-phenylethyl)-2,3,4,5-tetrahydro-1H-pyrido[4,3-b]indole hydrochloride] the “Accumulation factor (Fc)” value (40-mg cohort) was 2.5, the “Accumulation factor (Fc)” value (60-mg cohort) was 2.1 and the half-life (20 mg, single dose, 40-mg cohort) was 10.3 ± 5.4 h. For the same compound, the Tmax (20 mg, single dose, 40-mg cohort, read-out: Tmax, median) was 0.75 h, the half-life (20 mg, single dose, 60-mg cohort) was 7.3 ± 2.6 h and the Tmax (20 mg, single dose, 60-mg cohort, read-out: Tmax, median) was 2.3 h. The Tmax (20 mg, single dose, majority of volunteers, read-out: Tmax, variation) was 0.5 to 4 h, the Tmax (40 mg/day, repeated doses, 40-mg cohort, read-out: Tmax, median) was 0.38 h and the Tmax (60 mg/day, repeated doses, 60-mg cohort, read-out: Tmax, median) was 1 h. The “Time to stabilization of the residual concentration after the start of regular drug administration” value (multiple dosing) was 1 to 2 days, the “Tmax, variability range” value (repeated doses) was 0.3 to 4 h and the “Increase in T1/2 after repeated administration, on an average” value (repeated vs single administration) was 1.4 times.
